{"source": "paper PMC11984407", "about": "“A natural small molecule isoginkgetin alleviates hypercholesterolemia and atherosclerosis by targeting ACLY” (Theranostics, 2025)", "key": {"[1]": {"tested_on": "primary mouse hepatocytes", "test": "De novo lipogenesis in vitro, [1,2-14C]-acetate incorporation", "type": "cell-based", "conditions": "2.5 μmol/L and 5 μmol/L, 4 h", "method": "Hepatocytes were seeded in 6-well plates at a density of 6 x 10^5 cells per well. They were exposed to various compounds along with [1,2-^14C]-acetate (0.1 μCi per well) for specified durations. Following treatment, the cells underwent washing with cold PBS and were lysed in 0.4 to 0.6 mL of 0.5 M KOH. The saponification process at 95 °C for 3 h with 0.4 mL of KOH (in 20% methanol solution) enabled the separation of cholesterol and fatty acids. Cholesterol, being nonpolar, was extracted using 0.5 mL of petroleum ether in three separate instances. In comparison, polar fatty acids were extracted with 0.5 mL of petroleum ether after adding 0.2 mL of H2O and 0.4 mL of 5 M H2SO4 in three rounds. The petroleum ether extracts were left to air dry at room temperature overnight. The radioactivity of the resultant products was quantified using a liquid scintillation counter."}, "C57BL/6J mice": {"tested_on": "C57BL/6J mice", "test": "Safety assessment in normal C57BL/6J mice", "type": "in vivo, mouse", "conditions": "20 mg/kg/day i.p., 4 weeks, male C57BL/6J"}, "Syrian golden hamsters": {"tested_on": "Syrian golden hamsters", "test": "High cholesterol diet-fed Syrian golden hamsters", "type": "in vivo, hamster", "method": "Syrian golden hamsters were purchased from Vital River Laboratories (Beijing, China). Hamsters were fed a high cholesterol diet and received ISOGK (5 mg/kg/day) for 4 weeks. Before being sacrificed, liver and blood samples were collected at the end of the experiment. The animal study protocol was approved by the Ethics Committee of Hefei University of Technology (approval number HFUT20221031001) and conducted in accordance with the guidelines set forth in the \"Guide for the Care and Use of Laboratory Animals,\" published by the National Institutes of Health (NIH).\n(§1) Plasma levels of TC, TG, LDL-C, and high-density lipoprotein cholesterol (HDL-C) were determined following the manufacturer's instructions. Liver tissues (30-40 mg) were homogenized in 0.5 mL of cold PBS for hepatic TG and cholesterol measurement. A 0.4 mL homogenate was combined with 1.4 mL of a CHCl3/CH3OH mixture (2:1, v/v) and shaken overnight at room temperature. Following centrifugation at 2,500 × g for a period of 10 min, the organic phase was meticulously transferred and permitted to air-dry. The residual organic material was then reconstituted in 800 μL of ethanol containing 1% Triton X-100, whereby the ethanol served to solubilize the material.\nFast protein liquid chromatography (FPLC) was employed to analyze plasma lipoproteins using 200 μL of pooled plasma samples. The samples were initially filtered through 0.22-µm filters and subsequently loaded onto Tricorn high-performance Superose S-6 10/300GL columns (Amersham Biosciences). Elution was conducted with PBS at a constant flow rate of 0.25 mL/min. The eluted fractions (500 μL each) were subjected to analysis for TG and TC concentrations using the aforementioned commercial assay kits."}, "Ldlr-/- hamsters": {"tested_on": "Ldlr-/- hamsters", "test": "High cholesterol diet-fed Ldlr-/- hamsters", "type": "in vivo, hamster", "method": "Syrian golden hamsters with a deficiency in the low-density lipoprotein receptor (Ldlr) gene were generated using the clustered regularly interspaced short palindromic repeats (CRISPR) and CRISPR-associated protein 9 (Cas9) gene editing system, as previously described. Male Ldlr^-/- hamsters at 8-week-old were randomly divided into three groups. The animals were administered with vehicle, ISOGK (2 mg/kg/day), or ISOGK (5 mg/kg/day) for a period of four weeks. The hamsters were maintained on a 14-h light/10-h dark cycle at 24 °C and were fed a 1.25% high cholesterol diet. Unless otherwise stated, the hamsters were fasted for 12 h prior to euthanasia. All experiments were conducted in accordance with the principles of experimental animal care (NIH publication no. 85-23, revised 1996) and were approved by the Animal Care and Use Committee of Peking University (approval number LA2022-147).\nas §1"}, "[2]": {"conditions": "hamsters, 5 mg/kg/day i.p., 4 weeks"}}, "data": [{"molecule": "COc1ccc(-c2cc(=O)c3c(O)cc(O)c(-c4cc(-c5cc(=O)c6c(O)cc(O)cc6o5)ccc4OC)c3o2)cc1", "note": "[ISOGK, Isoginkgetin]", "values": [{"measurement": "incorporation of [1,2-14C]-acetate into fatty acids and cholesterol", "setting": "[1]", "result": "inhibition of lipogenesis"}, {"measurement": "H&E staining of heart, liver, spleen, lungs, kidneys", "setting": "C57BL/6J mice", "result": "no histological differences"}, {"measurement": "PAS staining of kidney tissues", "setting": "C57BL/6J mice", "result": "no significant difference in glycogen deposits"}, {"measurement": "body weight vs vehicle", "setting": "C57BL/6J mice", "result": "no statistically significant differences"}, {"measurement": "fasting blood glucose (FBG) vs vehicle", "setting": "C57BL/6J mice", "result": "no statistically significant differences"}, {"measurement": "lactate dehydrogenase (LDH)", "setting": "C57BL/6J mice", "result": "no variation"}, {"measurement": "ratio of liver weight to body weight", "setting": "C57BL/6J mice", "result": "no significant change"}, {"measurement": "serum ALT, AST, ALP, BUN, CREA, CK, CK-MB vs vehicle", "setting": "C57BL/6J mice", "result": "did not induce any significant difference"}, {"measurement": "decrease in hepatic TC", "setting": "Syrian golden hamsters; [2]", "result": 27.53, "unit": "%"}, {"measurement": "decrease in hepatic TG", "setting": "Syrian golden hamsters; [2]", "result": 64.14, "unit": "%"}, {"measurement": "reduction in serum LDL-C", "setting": "Syrian golden hamsters; [2]", "result": 56.55, "unit": "%"}, {"measurement": "reduction in serum TC", "setting": "Syrian golden hamsters; [2]", "result": 36.12, "unit": "%"}, {"measurement": "reduction in serum TG", "setting": "Syrian golden hamsters; [2]", "result": 46.87, "unit": "%"}, {"measurement": "lipid deposition in liver (Oil Red O)", "setting": "Syrian golden hamsters; hamsters, 4 weeks", "result": "significantly reduced lipid deposition"}, {"measurement": "serum antioxidant indicators (MDA, SOD, ox-LDL)", "setting": "Syrian golden hamsters; hamsters, 4 weeks", "result": "remained unaltered"}, {"measurement": "serum TC and TG distribution (FPLC)", "setting": "Syrian golden hamsters; hamsters, pooled plasma", "result": "significant decrease in serum TC and TG distribution"}, {"measurement": "serum ALT and AST vs vehicle", "setting": "Syrian golden hamsters; high cholesterol diet-fed hamsters, 5 mg/kg/day i.p., 4 weeks", "result": "no significant difference"}, {"measurement": "LDLR and ACLY protein levels in the liver", "setting": "Syrian golden hamsters; hyperlipidemic hamsters, 5 mg/kg/day, 4 weeks", "result": "no significant difference"}, {"measurement": "lipid accumulation in aortic sinus (Oil Red O)", "setting": "Ldlr-/- hamsters", "result": "significantly reduced lipid accumulation"}, {"measurement": "lipid accumulation in liver tissues (Nile Red)", "setting": "Ldlr-/- hamsters", "result": "significantly reduced lipid accumulation"}, {"measurement": "reduction in hepatic TC vs vehicle", "setting": "Ldlr-/- hamsters; 2 mg/kg/day i.p.", "result": 25.89, "unit": "%"}, {"measurement": "reduction in hepatic TC vs vehicle", "setting": "Ldlr-/- hamsters; 5 mg/kg/day i.p.", "result": 35.75, "unit": "%"}, {"measurement": "decrease in serum TG levels (Figure 5B)", "setting": "Ldlr-/- hamsters; high dose 5 mg/kg/day", "result": 61.32, "unit": "%"}, {"measurement": "decrease in serum non-HDL-C", "setting": "Ldlr-/- hamsters; high dose 5 mg/kg/day", "result": 51.76, "unit": "%"}, {"measurement": "reduction in serum TC (Figure 5C)", "setting": "Ldlr-/- hamsters; high dose 5 mg/kg/day", "result": 52.15, "unit": "%"}, {"measurement": "reduction in serum TG (Figure 5C)", "setting": "Ldlr-/- hamsters; high dose 5 mg/kg/day", "result": 51.38, "unit": "%"}, {"measurement": "reduction of aortic plaque area (Oil Red O) vs vehicle", "setting": "Ldlr-/- hamsters; high-dose 5 mg/kg/day", "result": 29.85, "unit": "%"}, {"measurement": "serum HDL-C levels", "setting": "Ldlr-/- hamsters; low and high doses", "result": "without affecting HDL-C levels"}, {"measurement": "decrease in serum TG levels (Figure 5B)", "setting": "Ldlr-/- hamsters; low dose 2 mg/kg/day", "result": 47.57, "unit": "%"}, {"measurement": "decrease in serum non-HDL-C", "setting": "Ldlr-/- hamsters; low dose 2 mg/kg/day", "result": 28.16, "unit": "%"}, {"measurement": "reduction in serum TC (Figure 5C)", "setting": "Ldlr-/- hamsters; low dose 2 mg/kg/day", "result": 28.72, "unit": "%"}, {"measurement": "reduction in serum TG (Figure 5C)", "setting": "Ldlr-/- hamsters; low dose 2 mg/kg/day", "result": 47.99, "unit": "%"}, {"measurement": "reduction of aortic plaque area (Oil Red O) vs vehicle", "setting": "Ldlr-/- hamsters; low-dose 2 mg/kg/day", "result": 21.74, "unit": "%"}]}]}
